The nature of series [1]: Solubility in water and culture medium. Format: physicochemical. The following applies: physiological pH.
The conditions of series [2]: prior art amino acid; cited from earlier work.
Series [3] in a line: Light-induced isomerization of Caf, analysis by HPLC. Format: physicochemical. The following applies: for isomer composition after irradiation with green light (HPLC): green LED light, λ=520 nm, after UV irradiation; for isomer composition before irradiation (HPLC): ground state, prior to irradiation. The protocol: 500 μl of a 60 μM solution of Caf (7) in water was placed in a 1.5 ml HPLC vial (Screw neck vial N9, amber glass, 11.6×32 mm; Macherey Nagel, Duren, Germany) and irradiated with a UV LED (λ=353 nm, NS355L-5RLO; Nitride Semiconductors, Tokushima, Japan) for 30 min directly from the top. Before and after irradiation, a 20 μl sample of the solution was withdrawn and analyzed by HPLC on a Purospher RP-8e 250×3 mm column (Merck), applying a concentration gradient of 10-12% acetonitrile (ACN) in 50 mM NH4OAc buffer pH 8 over 10 min (flow rate 0.6 ml/min). Another sample was analyzed in the same manner after irradiation with green LED light (λ=520 nm, LL-504PGC2E-G5-2CC, Lucky Light Electronics, Hongkong, China). […] The chromatograms reveal that the cis and trans isomers of (7) can be separated by HPLC (cis-(7) tR=3.6 min, trans-(7) tR=4.6 min). […] However, it should be taken into account that also during HPLC analysis reisomerization of cis-(7) to trans-(7) takes place, so the proportion of cis-(7) after irradiation with UV light might actually be higher than indicated by HPLC chromatograms. Thus, if the light-switchable polypeptide of the present invention is applied for an affinity chromatography procedure, and the trans configuration corresponds to the high affinity state whereas the cis configuration corresponds to the low affinity conformation, then the highest degree of binding and the highest degree of elution of the molecule of interest takes place at 430 nm and 330 nm, respectively. However, conventional light sources usually provide light having wavelengths that are around 530 nm (visible light) and 365 nm (UV light). Therefore, also light providing these wavelengths (i.e. around 530 nm and/or around 365 nm) may be used in accordance with the present invention.

Series [4] can be described thus: Light-induced isomerization of Caf, analysis by UV-VIS spectroscopy. It counts as physicochemical. The following applies: 30 μM aqueous solution; alternating UV and green LED irradiation over 3 cycles. The source says: The electronic transition π→π* is usually in the near UV region around 340 nm (Sension et al. 1993 J. Chem. Phys. 98: 6291-6315) whereas the electronic transition n→π* is usually located in the visible (VIS) region around 420 nm and is due to the presence of unshared electron pairs of the nitrogen atoms (Naegele et al. 1997 Chem. Phys. Lett. 272: 489-495). To examine whether the synthesized non-natural amino acid Caf (7) can respond to photoswitching induced by UV light, the compound was subjected to alternating irradiation cycles. In a typical experiment, 0.5 ml of a 30 μM aqueous solution was placed in a quartz cuvette with 1 cm optical pathlength. Then the sample was irradiated for 30 min from the top using a UV LED (NS355L-5RLO; Nitride Semiconductors, Tokushima, Japan) with 353 nm or a green LED (LL-504PGC2E-G5-2CC; Lucky Light Electronics, Hongkong, China) with 520 nm emitting wavelength. The change in intensity of the π-π* band at around 340 nm corresponding to the trans/cis isomerization (FIG. 4A) was monitored with a computer controlled photometer (Ultrospec 2100 pro, Amersham Biosciences).

In the case of `N[C@@H](Cc1ccc(N=Nc2cccc(C(=O)O)c2)cc1)C(=O)O` [3′-carboxyphenylazophenylalanine, 4-[(3-Carboxyphenyl)azo]-L-phenylalanine], the “solubility in water and LB culture medium” value in series [1] is “good solubility”.
Take `N[C@@H](Cc1ccc(N=Nc2ccccc2)cc1)C(=O)O` [AzoPhe]: the “solubility in water as well as culture media” value in series [2] is on record as “extremely poor solubility”.
In the case of `N[C@@H](Cc1ccc(N=Nc2ccc(C(=O)O)cc2)cc1)C(=O)O` [Caf, 4-[(4-carboxyphenyl)azo]-L-phenylalanine], the “isomer composition after irradiation with UV light (HPLC)” value in series [3] (after irradiation with UV light) is “mostly cis isomer”. Moreover, in series [3] (after irradiation with UV light for 30 min, 60 μM in water, HPLC at 286 nm), the “proportion of cis-(7)” value is listed as “up to 86%”. Also, in series [3], the “isomer composition after irradiation with green light (HPLC)” value is reported as “recovering the ground state” and the “isomer composition before irradiation (HPLC)” value is “only energetically favored trans-(7)”. In addition, in series [3] (listed as 7), the “isomer composition after irradiation with green light (HPLC)” value is on record as “mostly trans isomer” and the “isomer composition before irradiation (HPLC)” value is on record as “essentially pure trans isomer”. The “photoswitching between trans and cis configuration (absorbance at about 340 nm)” value in series [4] is recorded as “reversible photoswitching”. In addition, the “solubility in water and LB culture medium” value in series [1] is on record as “good solubility”.

These data come from patent US20210079037A1, “LIGHT-SWITCHABLE POLYPEPTIDE AND USES THEREOF” (TECHNISCHE UNIVERSITÄT MÜNCHEN, priority 2017, published 2021).
